Assay results from patent US11786555B2, “RAR selective agonists in combination with immune modulators for cancer immunotherapy” (IO THERAPEUTICS, INC., priority 2017, dated 2023).

Key:
[1] = test system: Kasumi-1 cells; assay: CFU experiments, off and on stroma; assay type: cell-based; settings: 10^−6 M ATRA, IRX5183, or 10^−7 M AM80
Description: (§1) Data across three independent experiments.

[2] = test system: NB4 cells; assay: CFU experiments, off and on stroma; assay type: cell-based; settings: 10^−7 M ATRA, IRX5183, or 10^−8 M AM80
Description: as §1

[3] = test system: OCI-AML3 cells; assay: CFU experiments, off and on stroma; assay type: cell-based; settings: 10^−6 M ATRA, IRX5183, or 10^−7 M AM80
Description: as §1

[4] = test system: RARα; assay: transactivation assay, agonist activity; settings: RARα versus RARβ and RARγ, FIG. 1
Description: Transactivation assays employ expression plasmids encoding the full length receptors RARα, RARβ, and RARγ. Reporter plasmids containing the herpes virus thymidine kinase promoter and the appropriate retinoic acid receptor response element (RAREs) are positioned upstream of an open coding region encoding firefly luciferase.

## CC1(C)CCC(C)(C)c2c1cc(C(=O)Nc1cc(F)c(C(=O)O)c(F)c1)c(O)c2Cl [IRX5183]
[1]
  clonogenic growth (CFU), differentiation and elimination of AML: decrease in clonogenic growth compared to control
[2]
  clonogenic growth (CFU), differentiation and elimination of AML: decrease in clonogenic growth compared to control
[3]
  clonogenic growth (CFU), differentiation and elimination of AML: decrease in clonogenic growth compared to control
[4]
  agonist activity (transactivation): specifically activates RARα
